ChEMBL document CHEMBL5550160, “Leveraging a rationally designed veliparib-based anilide eliciting anti-leukemic effects for the design of pH-responsive polymer nanoformulation” (Eur J Med Chem, 2024)
Values belong to the compound of their own block, whether it stands above or below them.

What was measured:
A549 = assay: cells; type: functional, cell-based; conditions: Homo sapiens
Description: Antiproliferative activity against human A549 cells assessed as inhibition of cell growth by MTT assay

HL-60 = assay: cells; conditions: Homo sapiens
Description: Antiproliferative activity against human HL-60 cells assessed as inhibition of cell growth by MTT assay

PC-3 = assay: cells; type: functional, cell-based; conditions: Homo sapiens
Description: Antiproliferative activity against human PC-3 cells assessed as inhibition of cell growth by MTT assay

MOLT-4 = assay: cells; type: functional, cell-based; conditions: Homo sapiens
Description: Antiproliferative activity against human MOLT-4 cells assessed as inhibition of cell growth by MTT assay

Histone deacetylase 2 = Histone deacetylase 2 (Homo sapiens, UniProt Q92769); assay: Inhibition of HDAC2 (unknown origin)
Histone deacetylase 3 = Histone deacetylase 3 (Homo sapiens, UniProt O15379); assay: Inhibition of HDAC3 (unknown origin) using p53 residues 379 to 382 [RHKK(Ac)] as fluorogenic substrate
HH = assay: cells; type: functional, cell-based; conditions: Homo sapiens
Description: Antiproliferative activity against human HH cells assessed as inhibition of cell growth by MTT assay

K562 = assay: cells; conditions: Homo sapiens
Description: Antiproliferative activity against human K562 cells assessed as inhibition of cell growth by MTT assay

Histone deacetylase 1 = Histone deacetylase 1 (Homo sapiens, UniProt Q13547); assay: Inhibition of HDAC1 (unknown origin) using p53 residues 379 to 382 [RHKK(Ac)] as fluorogenic substrate
MDA-MB-231 = assay: Antiproliferative activity against human MDA-MB-231 cells assessed as inhibition of cell growth by MTT assay; type: functional, cell-based
SiHa = assay: cells; type: functional, cell-based; conditions: Homo sapiens
Description: Antiproliferative activity against human SiHa cells assessed as inhibition of cell growth by MTT assay

FaDu = assay: cells; type: functional, cell-based; conditions: Homo sapiens
Description: Antiproliferative activity against human FaDu cells assessed as inhibition of cell growth by MTT assay

Sequence of Histone deacetylase 3 (O15379 whole entry, the tested form may be a part): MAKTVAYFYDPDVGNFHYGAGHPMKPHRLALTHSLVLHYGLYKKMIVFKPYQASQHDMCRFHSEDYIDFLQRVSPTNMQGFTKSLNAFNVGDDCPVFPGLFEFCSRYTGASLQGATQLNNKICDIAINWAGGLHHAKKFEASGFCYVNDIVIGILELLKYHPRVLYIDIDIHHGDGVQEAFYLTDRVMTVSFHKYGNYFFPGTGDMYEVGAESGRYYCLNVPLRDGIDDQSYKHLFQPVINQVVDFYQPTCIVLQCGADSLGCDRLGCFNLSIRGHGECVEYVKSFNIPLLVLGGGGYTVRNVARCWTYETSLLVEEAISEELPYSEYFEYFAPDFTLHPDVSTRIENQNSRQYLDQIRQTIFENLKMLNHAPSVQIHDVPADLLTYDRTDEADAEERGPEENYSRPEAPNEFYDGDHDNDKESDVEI
Sequence of Histone deacetylase 2 (Q92769 whole entry, the tested form may be a part): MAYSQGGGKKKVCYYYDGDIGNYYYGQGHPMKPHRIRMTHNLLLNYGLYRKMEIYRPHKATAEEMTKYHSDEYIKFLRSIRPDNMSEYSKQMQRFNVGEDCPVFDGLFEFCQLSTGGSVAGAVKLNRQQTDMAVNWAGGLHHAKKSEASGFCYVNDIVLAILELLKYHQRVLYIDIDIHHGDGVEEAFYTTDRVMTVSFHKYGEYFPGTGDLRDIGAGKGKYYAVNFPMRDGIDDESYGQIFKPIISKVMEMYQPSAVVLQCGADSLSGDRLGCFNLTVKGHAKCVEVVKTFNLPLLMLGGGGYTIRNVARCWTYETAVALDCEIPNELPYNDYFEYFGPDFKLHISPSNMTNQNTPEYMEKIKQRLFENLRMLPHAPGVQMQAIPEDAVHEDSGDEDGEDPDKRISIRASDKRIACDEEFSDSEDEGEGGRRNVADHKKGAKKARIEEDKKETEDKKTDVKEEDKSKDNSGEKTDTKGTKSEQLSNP
Sequence of Histone deacetylase 1 (Q13547 whole entry, the tested form may be a part): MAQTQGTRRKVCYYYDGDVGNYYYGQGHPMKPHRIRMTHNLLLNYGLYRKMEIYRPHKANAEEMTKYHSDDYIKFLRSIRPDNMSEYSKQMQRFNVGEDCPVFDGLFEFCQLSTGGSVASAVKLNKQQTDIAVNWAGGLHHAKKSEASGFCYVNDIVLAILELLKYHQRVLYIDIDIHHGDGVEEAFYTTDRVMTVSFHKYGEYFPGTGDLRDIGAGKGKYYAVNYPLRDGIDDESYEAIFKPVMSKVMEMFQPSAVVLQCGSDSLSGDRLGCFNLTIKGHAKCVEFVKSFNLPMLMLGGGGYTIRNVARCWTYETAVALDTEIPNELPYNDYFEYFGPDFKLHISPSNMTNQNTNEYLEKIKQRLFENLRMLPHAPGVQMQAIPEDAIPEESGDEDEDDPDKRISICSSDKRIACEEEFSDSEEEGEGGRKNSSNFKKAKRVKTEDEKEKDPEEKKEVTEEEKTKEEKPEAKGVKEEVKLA

Structure (SMILES): NC(=O)c1cccc2[nH]c(-c3ccc(NC(=O)CCCCC(=O)NO)cc3)nc12
- IC50 (A549): 6.98 µM
- IC50 (HL-60): 5.45 µM
- IC50 (PC-3): 2.44 µM

Structure (SMILES): NC(=O)c1cccc2[nH]c(-c3ccc(NC(=O)CCC(=O)Nc4ccccc4N)cc3)nc12
- IC50 (A549): > 10 µM
- IC50 (HL-60): 3.75 µM
- IC50 (PC-3): > 10 µM

Structure (SMILES): NC(=O)c1cccc2[nH]c(-c3ccc(NC(=O)CCCC(=O)Nc4ccccc4N)cc3)nc12
- IC50 (A549): > 10 µM
- IC50 (HL-60): 3.21 µM
- IC50 (PC-3): > 10 µM

Structure (SMILES): NC(=O)c1cccc2[nH]c(-c3ccc(NC(=O)CCCCCC(=O)NO)cc3)nc12
- IC50 (A549): 5.41 µM
- IC50 (HL-60): 8.76 µM
- IC50 (PC-3): 2.32 µM

Structure (SMILES): NC(=O)c1cccc2[nH]c(-c3ccc(NC(=O)CCCCCCCC(=O)NO)cc3)nc12
- IC50 (A549): > 10 µM
- IC50 (HL-60): > 10 µM
- IC50 (PC-3): 7.65 µM

Structure (SMILES): NC(=O)c1cccc2[nH]c(-c3ccc(NC(=O)CCCCC(=O)Nc4ccccc4N)cc3)nc12
- IC50 (A549): > 10 µM
- IC50 (HL-60): 2.93 µM
- IC50 (PC-3): 4.76 µM

Structure (SMILES): NC(=O)c1cccc2[nH]c(-c3ccc(NC(=O)CCCCCCCCC(=O)NO)cc3)nc12
- IC50 (A549): > 10 µM
- IC50 (HL-60): > 10 µM
- IC50 (PC-3): 8.91 µM

Structure (SMILES): NC(=O)c1cccc2[nH]c(-c3ccc(NC(=O)CCCCCCCCC(=O)Nc4ccccc4N)cc3)nc12
- IC50 (A549): > 10 µM
- IC50 (HL-60): 7.96 µM
- IC50 (PC-3): > 10 µM

Structure (SMILES): NC(=O)c1cccc2[nH]c(-c3ccc(NCc4ccc(/C=C/C(=O)Nc5ccccc5N)cc4)cc3)nc12
- IC50 (A549): > 10 µM
- IC50 (HL-60): 3.65 µM
- IC50 (PC-3): > 10 µM

Structure (SMILES): NC(=O)c1cccc2[nH]c(-c3ccc(NC(=O)CCCCCCCC(=O)Nc4ccccc4N)cc3)nc12
- IC50 (A549): > 10 µM
- IC50 (HL-60): 4.92 µM
- IC50 (PC-3): > 10 µM

Structure (SMILES): NC(=O)c1cccc2[nH]c(-c3ccc(NC(=O)CCCC(=O)NO)cc3)nc12
- IC50 (A549): > 10 µM
- IC50 (HL-60): > 10 µM
- IC50 (PC-3): > 10 µM

Structure (SMILES): NC(=O)c1cccc2[nH]c(-c3ccc(NC(=O)CCC(=O)NO)cc3)nc12
- IC50 (A549): > 10 µM
- IC50 (HL-60): 7.89 µM
- IC50 (PC-3): > 10 µM

Structure (SMILES): C[C@]1(c2nc3c(C(N)=O)cccc3[nH]2)CCCN1 [VELIPARIB]
- IC50 (MDA-MB-231): > 10 µM
- IC50 (MOLT-4): > 10 µM
- IC50 (SiHa): > 10 µM
- IC50 (A549): > 10 µM
- IC50 (HH): > 10 µM
- IC50 (HL-60): > 10 µM
- IC50 (K562): > 10 µM
- IC50 (PC-3): > 10 µM
- IC50 (FaDu): > 10 µM

Now those with a lower IC50 (A549), led by results:

- IC50 (A549): 2.99 µM
- IC50 (HL-60): 1.04 µM
- IC50 (PC-3): 3.45 µM
Structure (SMILES): NC(=O)c1cccc2[nH]c(-c3ccc(NC(=O)CCCCCCC(=O)Nc4ccccc4N)cc3)nc12

- IC50 (MOLT-4): 5.67 µM
- IC50 (Histone deacetylase 2): 0.613 µM
- IC50 (A549): 3.45 µM
- IC50 (Histone deacetylase 3): 0.624 µM
- IC50 (HH): 4.98 µM
- IC50 (HL-60): 2.98 µM
- IC50 (K562): 4.21 µM
- IC50 (PC-3): 5.21 µM
- IC50 (Histone deacetylase 1): 0.544 µM
Structure (SMILES): Nc1ccccc1NC(=O)c1ccc(CNC(=O)OCc2ccccc2)cc1

- IC50 (A549): 4.32 µM
- IC50 (HL-60): 2.43 µM
- IC50 (PC-3): > 10 µM
Structure (SMILES): NC(=O)c1cccc2[nH]c(-c3ccc(NC(=O)CCCCCC(=O)Nc4ccccc4N)cc3)nc12

- IC50 (A549): 2.11 µM
- IC50 (HL-60): 3.21 µM
- IC50 (PC-3): 1.87 µM
Structure (SMILES): NC(=O)c1cccc2[nH]c(-c3ccc(NC(=O)CCCCCCC(=O)NO)cc3)nc12

- IC50 (A549): 2.03 µM
- IC50 (HL-60): 5.99 µM
- IC50 (PC-3): 1.99 µM
Structure (SMILES): NC(=O)c1cccc2[nH]c(-c3ccc(NCc4ccc(/C=C/C(=O)NO)cc4)cc3)nc12

- IC50 (A549): 2.31 µM
- IC50 (HL-60): 1.23 µM
- IC50 (PC-3): 2.34 µM
Structure (SMILES): NC(=O)c1cccc2[nH]c(-c3ccc(NCc4ccc(C(=O)NO)cc4)cc3)nc12
